Experimental data published in patent US20230339970A1, “CASEIN KINASE 1 DELTA MODULATORS” (priority 2020, published 2023).

What was measured:
human CSNK1D = biological target: T1, human CSNK1D (Homo sapiens, UniProt P48730); assay: Whole Cell nBRET CSNK1D Binding Assay; conditions: living CHO cells stably expressing human CSNK1D tagged with nanoluciferase; NanoBret tracer 130 nM; 2 hours at 37 C
T1 construct: expressed in transfected cells

[1] = biological target: T2, human recombinant GST cleaved CSNK1D (Homo sapiens, UniProt P48730); assay: Purified Enzyme Assay (ADP-Glo CSNK1D Kinase Assay); format: biochemical; conditions: 2 nM CSNK1D; peptide substrate 150 μM; ATP 20 μM; 45 minutes at room temperature
T2 construct: GST (cleaved yes); purchased University of Dundee clone DU 19064
T2 sequence (P48730 whole entry): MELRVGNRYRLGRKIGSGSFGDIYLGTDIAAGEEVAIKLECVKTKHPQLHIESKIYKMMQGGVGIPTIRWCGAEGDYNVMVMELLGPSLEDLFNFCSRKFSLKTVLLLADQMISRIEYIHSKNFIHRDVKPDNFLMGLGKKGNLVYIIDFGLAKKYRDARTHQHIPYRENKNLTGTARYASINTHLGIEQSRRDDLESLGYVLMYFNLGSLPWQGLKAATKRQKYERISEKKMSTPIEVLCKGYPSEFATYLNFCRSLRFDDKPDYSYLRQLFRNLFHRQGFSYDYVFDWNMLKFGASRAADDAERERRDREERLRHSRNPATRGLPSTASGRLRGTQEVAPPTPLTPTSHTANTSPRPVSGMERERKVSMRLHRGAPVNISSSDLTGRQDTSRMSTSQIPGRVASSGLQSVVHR
Summary of the method: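 Percent activity derived from ADP-Glo quantification of ADP produced. Reactions: compound dose-response with human recombinant GST-cleaved CSNK1D, ATP and substrate peptide PLSRTL-pS-VASLPGL, incubated 45 min at room temperature.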

T1 sequence (P48730 whole entry): as above

SMILES	IC50 (human CSNK1D)	IC50 [1]
Fc1ccc(-c2nn3c(c2-c2ccnc4[nH]ncc24)C[C@@H]2C[C@@H]23)cc1 [Example 268, (4aS,5aS)-2-(4-Fluorophenyl)-3-(1H-pyrazolo[3,4-b]pyridin-4-yl)-4,4a,5,5a-tetrahydrocyclopropa[4,5]pyrrolo[1,2-b]pyrazole]	5 nM	1 nM
Cc1nc2[nH]ncc2c(-c2c(-c3ccc(F)cn3)nn3c2OC[C@@H]2C[C@@H]2C3)c1F (stereo in doubt) [Example 483, (5a*S,6a*R)-3-(5-Fluoro-6-methyl-1H-pyrazolo[3,4-b]pyridin-4-yl)-2-(5-fluoropyridin-2-yl)-5a,6,6a,7-tetrahydro-5H-cyclopropa[e]pyrazolo[5,1-b][1,3]oxazepine]	48 nM	5 nM
CC1(CF)CCc2c(-c3ccn4nccc4c3)c(-c3ccc(F)cn3)nn2C1 (single isomer, unassigned) [Example 290, (*S)-5-[6-(Fluoromethyl)-2-(5-fluoro-2-pyridyl)-6-methyl-5,7-dihydro-4H-pyrazolo[1,5-a]pyridin-3-yl]pyrazolo[1,5-a]pyridine]	120 nM	539 nM
Fc1ccc(-c2nn3c(c2-c2ccn4nccc4c2)C[C@H](F)C3)cc1 [Example 226, 5-[(5S)-5-Fluoro-2-(4-fluorophenyl)-5,6-dihydro-4H-pyrrolo[1,2-b]pyrazol-3-yl]pyrazolo[1,5-a]pyridine]	48 nM	10 nM
CC(=O)Nc1cc(-c2c(-c3ccc(F)cn3)nn3c2OCCC3)ccn1 [Example 183, N-(4-(2-(5-Fluoropyridin-2-yl)-6,7-dihydro-5H-pyrazolo[5,1-b][1,3]oxazin-3-yl)pyridin-2-yl)acetamide]	220 nM	7 nM
CC1(C)COc2c(-c3ccnc4ccsc34)c(-c3ccc(F)cn3)nn2C1 [Example 214, 2-(5-Fluoropyridin-2-yl)-6,6-dimethyl-3-(thieno[3,2-b]pyridin-7-yl)-6,7-dihydro-5H-pyrazolo[5,1-b][1,3]oxazine]	75 nM	9 nM
Cc1nc(-c2c(-c3ccc(F)cn3)nn3c2CC[C@H]2[C@@H]3C2(F)F)c2cn[nH]c2n1 (single isomer, unassigned) [Example 361, (5a*S,6a*R)-6,6-Difluoro-2-(5-fluoropyridin-2-yl)-3-(6-methyl-1H-pyrazolo[3,4-d]pyrimidin-4-yl)-5,5a,6,6a-tetrahydro-4H-cyclopropa[e]pyrazolo[1,5-a]pyridine]	349 nM	497 nM
Fc1ccc(-c2nn3c(c2-c2ccnc4[nH]nc(Cl)c24)C[C@@H]2C[C@@H]23)nc1 [Example 271, (4aS,5aS)-3-(3-Chloro-1H-pyrazolo[3,4-b]pyridin-4-yl)-2-(5-fluoropyridin-2-yl)-4,4a,5,5a-tetrahydrocyclopropa[4,5]pyrrolo[1,2-b]pyrazole]	4 nM	2 nM
COCC1(F)CCc2c(-c3c(F)c(C)nc4[nH]ncc34)c(-c3ccc(F)cn3)nn2C1 (single isomer, unassigned) [Example 308, (*S)-5-Fluoro-4-[6-fluoro-2-(5-fluoro-2-pyridyl)-6-(methoxymethyl)-5,7-dihydro-4H-pyrazolo[1,5-a]pyridin-3-yl]-6-methyl-1H-pyrazolo[3,4-b]pyridine]	34 nM	6 nM
CC1(C)Cn2nc(-c3ccc(F)cn3)c(-c3ccnc(NC(=O)C4CC4(F)F)c3)c2CO1 (stereo not drawn) [Example 135, 2,2-Difluoro-N-(4-(2-(5-fluoropyridin-2-yl)-6,6-dimethyl-6,7-dihydro-4H-pyrazolo[5,1-c][1,4]oxazin-3-yl)pyridin-2-yl)cyclopropane-1-carboxamide]	6 nM	3 nM
Fc1ccc(-c2nn3c(c2-c2ccncc2)COCC3)cc1 [Example 369, 2-(4-Fluorophenyl)-3-(4-pyridyl)-6,7-dihydro-4H-pyrazolo[5,1-c][1,4]oxazine]	96 nM	12 nM
CCn1ncc2cc(-c3c(-c4ccc(F)cc4)nn4c3COCC4C)cnc21 (stereo not drawn) [Example 370, 3-(1-Ethyl-1H-pyrazolo[3,4-b]pyridin-5-yl)-2-(4-fluorophenyl)-7-methyl-6,7-dihydro-4H-pyrazolo[5,1-c][1,4]oxazine]	> 10000 nM	524 nM
Cc1n[nH]c2nc(C(F)F)cc(-c3c(-c4ccc(F)cc4)nn4c3COC(C(F)(F)F)C4)c12 (single isomer, unassigned) [Example 375, (*R)-3-[6-(Difluoromethyl)-3-methyl-1H-pyrazolo[3,4-b]pyridin-4-yl]-2-(4-fluorophenyl)-6-(trifluoromethyl)-6,7-dihydro-4H-pyrazolo[5,1-c][1,4]oxazine]	109 nM	65 nM
Cc1n[nH]c2nccc(-c3c(-c4ccc(F)cc4)nn4c3OCC3(C4)CC3(F)F)c12 (single isomer, unassigned) [Example 473, (*R)-2,2-Difluoro-2′-(4-fluorophenyl)-3′-(3-methyl-1H-pyrazolo[3,4-b]pyridin-4-yl)-5′H,7′H-spiro[cyclopropane-1,6′-pyrazolo[5,1-b][1,3]oxazine]]	6 nM	2 nM
CC(=O)Nc1cc(-c2c(-c3ccc(F)cc3)nn3c2CC[C@@H]2[C@H]3C2(F)F)ccn1 (stereo in doubt) [Example 349, N-(4-((5a*R,6a*S-6,6-Difluoro-2-(4-fluorophenyl)-5,5a,6,6a-tetrahydro-4H-cyclopropa[e]pyrazolo[1,5-a]pyridin-3-yl)pyridin-2-yl)acetamide]	74 nM	8 nM

The next lines start with the values.

IC50 (human CSNK1D)	IC50 [1]	SMILES
528 nM	19 nM	Cc1cc(-c2c(-c3ccc(F)cn3)nn3c2CNCC3)c2cn[nH]c2n1 [Example 2, 4-[2-(5-Fluoro-2-pyridyl)-4,5,6,7-tetrahydropyrazolo[1,5-a]pyrazin-3-yl]-6-methyl-1H-pyrazolo[3,4-b]pyridine]
105 nM	14 nM	CC1(CC2COC2)CCc2c(-c3ccnc4[nH]ncc34)c(-c3ccc(F)cn3)nn2C1 (single isomer, unassigned) [Example 320, (*R)-4-(2-(5-Fluoropyridin-2-yl)-6-methyl-6-(oxetan-3-ylmethyl)-4,5,6,7-tetrahydropyrazolo[1,5-a]pyridin-3-yl)-1H-pyrazolo[3,4-b]pyridine]
330 nM	8 nM	Cc1cc(-c2c(-c3ccc(F)cn3)nn3c2OCCC3)c2cn[nH]c2n1 [Example 187, 2-(5-Fluoropyridin-2-yl)-3-(6-methyl-1H-pyrazolo[3,4-b]pyridin-4-yl)-6,7-dihydro-5H-pyrazolo[5,1-b][1,3]oxazine]
133 nM	6 nM	Cc1cc(-c2c(-c3ccc(F)cn3)nn3c2CCCC3)c2cn[nH]c2n1 [Example 36, 4-[2-(5-Fluoro-2-pyridyl)-4,5,6,7-tetrahydropyrazolo[1,5-a]pyridin-3-yl]-6-methyl-1H-pyrazolo[3,4-b]pyridine]
460 nM	7 nM	Fc1ccc(-c2nn3c(c2-c2c(F)cnc4[nH]ncc24)CCC3)nc1 [Example 221, 5-Fluoro-4-[2-(5-fluoro-2-pyridyl)-5,6-dihydro-4H-pyrrolo[1,2-b]pyrazol-3-yl]-1H-pyrazolo[3,4-b]pyridine]
682 nM	36 nM	Cc1nc2[nH]ncc2c(-c2c(-c3ccc(F)cn3)nn3c2CO[C@](C)(C(F)(F)F)C3)c1F (single isomer, unassigned) [Example 421, (*S)-3-(5-Fluoro-6-methyl-1H-pyrazolo[3,4-b]pyridin-4-yl)-2-(5-fluoropyridin-2-yl)-6-methyl-6-(trifluoromethyl)-6,7-dihydro-4H-pyrazolo[5,1-c][1,4]oxazine]
1570 nM	67 nM	[2H]C([2H])([2H])[C@]1(C(F)(F)F)Cn2nc(-c3ccc(F)cn3)c(-c3ccnc4[nH]ncc34)c2CO1 (single isomer, unassigned) [Example 423, (*R)-2-(5-Fluoropyridin-2-yl)-6-(methyl-d3)-3-(1H-pyrazolo[3,4-b]pyridin-4-yl)-6-(trifluoromethyl)-6,7-dihydro-4H-pyrazolo[5,1-c][1,4]oxazine]
16 nM	3 nM	Fc1ccc(-c2nn3c(c2-c2ccnc4[nH]ncc24)CCC(F)(F)C3)cc1 [Example 42, 4-(6,6-Difluoro-2-(4-fluorophenyl)-4,5,6,7-tetrahydropyrazolo[1,5-a]pyridin-3-yl)-1H-pyrazolo[3,4-b]pyridine]
39 nM	4 nM	[2H]C([2H])([2H])OC([2H])([2H])[C@]1(F)CCc2c(-c3cc(C)nc4[nH]ncc34)c(-c3ccc(F)cn3)nn2C1 (single isomer, unassigned) [Example 312, (*S)-4-[6-[(Methoxy-d3)methyl-d2]-6-fluoro-2-(5-fluoro-2-pyridyl)-5,7-dihydro-4H-pyrazolo[1,5-a]pyridin-3-yl]-6-methyl-1H-pyrazolo[3,4-b]pyridine]
> 10000 nM	1420 nM	CC1(C)Cn2nc(-c3ccc(F)cn3)c(-c3ccnc4cc[nH]c34)c2CO1 [Example 149, 2-(5-Fluoro-2-pyridyl)-6,6-dimethyl-3-(1H-pyrrolo[3,2-b]pyridin-7-yl)-4,7-dihydropyrazolo[5,1-c][1,4]oxazine]
41 nM	8 nM	Fc1ccc(-c2nn3c(c2-c2ccnc4[nH]ccc24)CCCC3)nc1 [Example 3, 4-[2-(5-Fluoro-2-pyridyl)-4,5,6,7-tetrahydropyrazolo[1,5-a]pyridin-3-yl]-1H-pyrrolo[2,3-b]pyridine]
114 nM	8 nM	CC1n2nc(-c3ccc(F)cn3)c(-c3ccnc4[nH]ncc34)c2COC1(C)C (single isomer, unassigned) [Example 174, (*S)-2-(5-Fluoropyridin-2-yl)-6,6,7-trimethyl-3-(1H-pyrazolo[3,4-b]pyridin-4-yl)-6,7-dihydro-4H-pyrazolo[5,1-c][1,4]oxazine]
